From patent publication US5358945A, “Pyrimidine compound and pharmaceutically acceptable salts thereof” (Mitsui Petrochemical Industries, Ltd., priority 1990, dated 1994)

Tests used:
[1] = tested on: Mouse neuro 2a cells; assay: Neurite outgrowth of mouse neuroblastoma neuro 2a cells (Table 7); type: cell-based; details: mean ± S.D.
Procedure: The biological activities in vitro of the compounds of formula (I) on cells of the nervous system were tested. The cells tested were mouse neuroblastoma cell line neuro-2a (Dainippon Pharmaceutical Co., Ltd.) which have been established as the cells of the nervous system. The above nerve cells were grown in an incubator at 37° C. in the presence of 5% carbon dioxide gas exponentially, and the cultured for a certain period of time together with the compounds of formula (I).
The effects of the compounds of this invention on neuroblastoma cells were examined by the following method.
Mouse neuro 2a cells in the logarithmic growth period in the Dulbecco's modified Eagle's medium [DMEM, containing 100 units/ml of penicillin G sodium and 100 micrograms/ml of streptomycin sulfate] containing 10% of FCS were seeded in a 48-well plate so that the number of cells was 1,000 cells/well, and cultured for one day in 0.25 ml of the culture fluid in each well in an incubator containing 5% of carbon dioxide gas in air at 37° C. The medium was replaced by a medium containing each antibiotics and FCS and the cells were further cultured for 24 hours. Then, a 4% aqueous glutaraldehyde solution in the same amount as a medium (0.25 ml) was added, and the culture was left to stand at room temperature for 2 hours to fix the cells. After washing with water, a 0.05% aqueous solution of methylene blue was added to stain the cells. Under a microscope, the number of cells containing outgrown neurites (cells having at least one neurite with a length of at least two times as large as the long diameter of the cell) was counted visually, and the proportion of these cells in the entire cells was calculated. The well was observed over 5 or more visual fields (at least 2% of the entire surface area of the well) continuous to the left and right from a mark put at the center of the well, and more than 200 cells was counted. One drug compound was used in 6 different concentrations at most, and three runs were conducted for each concentration.

[2] = tested on: Mouse neuroblastoma cells NS-20Y; assay: Neurite appearance in mouse neuroblastoma NS-20Y cells (Table 8); type: cell-based;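 further: cells grown in polyornithine-coated dishes, with timing counted from the start of culture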
[3] = tested on: mouse; assay: Acute toxicity in mouse (Table 10); type: in vivo
Procedure: The acute toxicity of the compounds of the invention was examined by the following method.
Male ddy-strain 5-week old mice, 4-6 per group, were used as experimental animals. Each of the compounds was dissolved or suspended in saline and administered perorally (p.o.) or intraperitoneally (i.p.), and the toxicity of the compound was assessed 24 hours after the administration.

[4] = i.p., 24 hours after administration

| Structure (SMILES) | Ratio of the number of cells having neurites with a length of at least two times as large as the diameter of cells to the total number of cells ([1]; 0.01 mM) | Ratio of the number of cells having neurites with a length of at least two times as large as the diameter of cells to the total number of cells ([1]; 0.1 mM) | Ratio of the number of cells having neurites with a length of at least two times as large as the diameter of cells to the total number of cells ([1]; 0.3 mM) | The number of cells in which neurites appeared/Total number of cells ([2]; 24 hour, 0.2 mM) | The number of cells in which neurites appeared/Total number of cells ([2]; 48 hour, 0.2 mM) | Estimated LD50 [3, 4] | Ratio of the number of cells having neurites with a length of at least two times as large as the diameter of cells to the total number of cells ([1]; 0.03 mM) | Ratio of the number of cells having neurites with a length of at least two times as large as the diameter of cells to the total number of cells ([1]; 1 mM) | The number of cells in which neurites appeared/Total number of cells ([2]; 48 hour, 0.1 mM) | Estimated LD50 ([3]; in vivo, ip) | The number of cells in which neurites appeared/Total number of cells ([2]; 24 hour, 0.5 mM) | The number of cells in which neurites appeared/Total number of cells ([2]; 48 hour, 0.5 mM) | The number of cells in which neurites appeared/Total number of cells ([2]; 24 hour, 0.1 mM) |
| --- | --- | --- | --- | --- | --- | --- | --- | --- | --- | --- | --- | --- | --- |
| CCOC(=O)C1CCN(c2nccc(N3CCCC3=O)n2)CC1 [Compound 376] | 3.4 ± 0.6% | 4.4 ± 0.8% | 6.0 ± 0.5% | 5/50 | 5/50 | > 500 mg/kg | – | – | – | – | – | – | – |
| CN(C(=O)C12CC3CC(CC(C3)C1)C2)c1ccnc(N2CCC(c3ccccc3)CC2)n1 [Compound 160] | – | 11.4 ± 1.3% | 23.5 ± 2.9% | 2/50 | – | – | 5.1 ± 1.2% | 20.7 ± 2.7% | 3/50 | 500 to 1000 mg/kg | – | – | – |
| COC(=O)c1ccc(C(=O)N(C)c2ccnc(N3CCC(c4ccccc4)CC3)n2)cc1 [Compound 120] | – | 8.6 ± 5.5% | – | 3/50 | 3/50 | – | 12.6 ± 1.6% | – | – | > 1000 mg/kg | – | – | – |
| O=C1CCCN1c1ccnc(N2CCOCC2)n1 [Compound 392] | – | 5.6 ± 3.7% | 6.1 ± 4.0% | 10/50 | 12/50 | > 500 mg/kg | 6.6 ± 2.2% | – | – | – | 15/50 | 21/50 | – |
| CN(C)c1nccc(N2CCCC2=O)n1 [Compound 432] | – | 4.2 ± 1.7% | – | – | 7/50 | > 500 mg/kg | 4.0 ± 2.2% | 5.1 ± 1.2% | – | – | 6/50 | 8/50 | – |
| CC1CCCCN1c1nccc(N2CCCC2=O)n1 (centres unmarked) [Compound 328] | 3.9 ± 0.9% | – | 5.6 ± 1.7% | – | – | – | – | – | 3/50 | 250 to 500 mg/kg | – | – | 3/50 |
| CC(=O)c1ccc(C(=O)N(C)c2ccnc(N3CCC(c4ccccc4)CC3)n2)cc1 [Compound 176] | 18.4 ± 2.0% | – | 13.6 ± 0.9% | 4/50 | 4/50 | – | 11.5 ± 2.1% | 14.8 ± 2.9% | – | > 1000 mg/kg | – | – | – |
| CN(C(=O)c1ccc(C=O)cc1)c1ccnc(N2CCCCC2)n1 [Compound 200] | – | 5.8 ± 1.3% | 19.7 ± 3.1% | 8/50 | 11/50 | > 1000 mg/kg | – | – | – | – | 16/50 | 18/50 | – |
| CCC1CCN(c2nccc(N3CCCC3=O)n2)CC1 [Compound 312] | 3.8 ± 0.6% | 12.7 ± 2.8% | – | 13/50 | 13/50 | > 500 mg/kg | 4.1 ± 1.2% | – | 8/50 | – | 17/50 | 18/50 | 6/50 |
| O=C1CCCN1c1ccnc(N2CCc3ccccc3C2)n1 [Compound 352] | 3.4 ± 0.1% | – | 4.2 ± 0.6% | 5/50 | 3/50 | > 500 mg/kg | – | – | – | – | – | – | – |
| CN(C(=O)c1ccc2c(c1)C(=O)OC2=O)c1ccnc(N2CCC(c3ccccc3)CC2)n1 [Compound 168] | – | – | 8.7 ± 2.0% | 3/50 | – | – | – | 14.6 ± 3.7% | – | > 1000 mg/kg | – | 3/50 | – |
| CN(C(=O)c1ccc(C(F)(F)F)cc1)c1ccnc(N2CCC(c3ccccc3)CC2)n1.Cc1ccc(S(=O)(=O)O)cc1 [Compound 112, 4-(N-methyl-4-trifluoromethylbenzoylamino)-2-(4-phenylpiperidino) pyrimidine p-toluenesulfonate] | – | 43.3 ± 1.8% | 21.6 ± 3.3% | – | – | > 1000 mg/kg | 5.9 ± 0.9% | 10.0 ± 3.8% | 2/50 | – | – | – | 3/50 |
| CC1CC(C)CN(c2nccc(N3CCCC3=O)n2)C1 (centres unmarked) [Compound 344] | 5.6 ± 1.6% | 7.5 ± 3.3% | 10.4 ± 3.4% | – | – | – | – | 12.5 ± 1.3% | 3/50 | 250 to 500 mg/kg | – | – | 3/50 |
| CC(=O)N(C)c1ccnc(N2CCSCC2)n1 [Compound 216] | – | – | 4.4 ± 1.3% | 3/50 | – | – | – | 15.8 ± 3.2% | – | 500 to 1000 mg/kg | 3/50 | 4/50 | – |
| CN(C(=O)c1ccc(C#N)cc1)c1ccnc(N2CCC(c3ccccc3)CC2)n1 [Compound 128] | – | 4.3 ± 1.6% | 4.8 ± 1.2% | – | – | > 1000 mg/kg | – | – | 4/50 | – | 3/50 | – | – |
| COC(=O)c1ccc(C(=O)N(C)c2ccnc(N3CCCCC3)n2)cc1 [Compound 192] | – | 8.0 ± 1.3% | 13.8 ± 2.8% | 5/50 | 7/50 | – | – | – | – | 500 to 1000 mg/kg | 5/50 | 11/50 | – |
